US20240197726A1, “NOVEL TETRAHYDROISOQUINOLINE ALKALOID COMPOUND CONTAINING MACROCYCLE” (THE UNIVERSITY OF TOKYO, priority 2021, published 2024)
Read-outs that look alike come from different tables or passages of the source.

What was measured:
Format in all cases: cell-based
[1] = test system: HCC2998 colorectal cancer cells; assay: antitumor activity, sulforhodamine B cell growth assay, HCC2998; conditions: HCC2998, drug exposure 48 hours, read-out: GI50 value: 50% growth inhibitory concentration
Description: (§1) The THIQ compound containing a macrocyclic structure of the present invention was administered to various cancer cell lines, and the antitumor activity (Go value) was observed. Specifically, verification was performed according to the literature (Yamori, T.; Matsunaga, A.; Sato, S.; Yamazaki, K.; Komi, A.; Ishizu, K. et al. Cancer Res. 1999, 59, 4042) by the following procedure.
(§2) Cells were plated at an appropriate density in a 96-well plate in RPMI 1640 together with 5% fetal bovine serum, and adhered overnight. The cells were exposed to a drug for 48 hours. Then, according to the sulforhodamine B assay described by Skehan et al (Skehan P., Storeng R., Scudiero D., Monks A., McMahon J., Vistica D., Warren J. T., Bokesch H., Kenney S., Boyd M. R. J Natl. Cancer Inst, 1990, 82, 1107-1112), the cell growth rate was measured. The absorbance of the control well (C) and the test well (T) was measured at 525 nm. In addition, the time at which the drug was added was set as time 0, and the absorbance for the test well (T0) was measured. Using these measured values, the cell growth inhibitory effect (% growth=PG) was calculated by the following formula at each concentration of the drug.
(§3) (T<T0): PG=100×[(T−T0)/T]
(§4) The PG values determined above for each cell line were plotted against the concentration (logarithm) on a semi-logarithmic graph, and summarized for each visceral cancer. Concentrations at which the dose-response curve of each cell line crossed the horizontal line of PG=50%, 0%, or −50% were calculated. These concentrations were defined as Log GI50, Log TGI, and Log LC50. Actually, using two data points of the drug concentration before and after crossing each horizontal line, the drug concentration (logarithmic value) at the intersection of the straight line connecting the two points and the horizontal line for each PG was calculated.

DMS114 lung cancer cells = assay: antitumor activity, sulforhodamine B cell growth assay, DMS114; conditions: DMS114, drug exposure 48 hours, read-out: GI50 value: 50% growth inhibitory concentration
Description: as §1, §2, §3, §4

[2] = test system: SF-295 central nervous system cancer cells; assay: antitumor activity, sulforhodamine B cell growth assay, SF-295; conditions: SF-295, drug exposure 48 hours, read-out: GI50 value: 50% growth inhibitory concentration
Description: as §1, §2, §3, §4

[3] = test system: NCI-H522 lung cancer cells; assay: antitumor activity, sulforhodamine B cell growth assay, NCI-H522; conditions: NCI-H522, drug exposure 48 hours, read-out: GI50 value: 50% growth inhibitory concentration
Description: as §1, §2, §3, §4

[4] = test system: MDA-MB-231 breast cancer cells; assay: antitumor activity, sulforhodamine B cell growth assay, MDA-MB-231; conditions: MDA-MB-231, drug exposure 48 hours, read-out: GI50 value: 50% growth inhibitory concentration
Description: as §1, §2, §3, §4

[5] = test system: HBC-4 breast cancer cells; assay: antitumor activity, sulforhodamine B cell growth assay, HBC-4; conditions: HBC-4, drug exposure 48 hours, read-out: GI50 value: 50% growth inhibitory concentration
Description: as §1, §2, §3, §4

[6] = test system: MKN74 gastric cancer cells; assay: antitumor activity, sulforhodamine B cell growth assay, MKN74; conditions: MKN74, drug exposure 48 hours, read-out: GI50 value: 50% growth inhibitory concentration
Description: as §1, §2, §3, §4

A549 lung cancer cells = assay: antitumor activity, sulforhodamine B cell growth assay, A549; conditions: A549, drug exposure 48 hours, read-out: GI50 value: 50% growth inhibitory concentration
Description: as §1, §2, §3, §4

[7] = test system: OVCAR-5 cervical cancer cells; assay: antitumor activity, sulforhodamine B cell growth assay, OVCAR-5; conditions: OVCAR-5, drug exposure 48 hours, read-out: GI50 value: 50% growth inhibitory concentration
Description: as §1, §2, §3, §4

[8] = test system: HCT-116 colorectal cancer cells; assay: antitumor activity, sulforhodamine B cell growth assay, HCT-116; conditions: HCT-116, drug exposure 48 hours, read-out: GI50 value: 50% growth inhibitory concentration
Description: as §1, §2, §3, §4

[9] = test system: NCI-H23 lung cancer cells; assay: antitumor activity, sulforhodamine B cell growth assay, NCI-H23; conditions: NCI-H23, drug exposure 48 hours, read-out: GI50 value: 50% growth inhibitory concentration
Description: as §1, §2, §3, §4

[10] = test system: BSY-1 breast cancer cells; assay: antitumor activity, sulforhodamine B cell growth assay, BSY-1; conditions: BSY-1, drug exposure 48 hours; read-out: GI50 value: 50% growth inhibitory concentration
Description: as §1, §2, §3, §4

[11] = test system: SF-539 central nervous system cancer cells; assay: antitumor activity, sulforhodamine B cell growth assay, SF-539; conditions: SF-539, drug exposure 48 hours, read-out: GI50 value: 50% growth inhibitory concentration
Description: as §1, §2, §3, §4

[12] = test system: DU-145 prostate cancer cells; assay: antitumor activity, sulforhodamine B cell growth assay, DU-145; conditions: DU-145, drug exposure 48 hours, read-out: GI50 value: 50% growth inhibitory concentration
Description: as §1, §2, §3, §4

[13] = test system: NCI-H460 lung cancer cells; assay: antitumor activity, sulforhodamine B cell growth assay, NCI-H460; conditions: NCI-H460, drug exposure 48 hours, read-out: GI50 value: 50% growth inhibitory concentration
Description: as §1, §2, §3, §4

[14] = test system: SF-268 central nervous system cancer cells; assay: antitumor activity, sulforhodamine B cell growth assay, SF-268; conditions: SF-268, drug exposure 48 hours, read-out: GI50 value: 50% growth inhibitory concentration
Description: as §1, §2, §3, §4

[15] = test system: PC-3 prostate cancer cells; assay: antitumor activity, sulforhodamine B cell growth assay, PC-3; conditions: PC-3, drug exposure 48 hours; read-out: GI50 value: 50% growth inhibitory concentration
Description: as §1, §2, §3, §4

ACHN kidney cancer cells = assay: antitumor activity, sulforhodamine B cell growth assay, ACHN; conditions: ACHN, drug exposure 48 hours, read-out: GI50 value: 50% growth inhibitory concentration
Description: as §1, §2, §3, §4

| Structure (SMILES) | GI50 [1] [nM] | GI50 (DMS114 lung cancer cells) [nM] | GI50 [2] [nM] | GI50 [3] [nM] | GI50 [4] [nM] | GI50 [5] [nM] | GI50 [6] [nM] | GI50 (A549 lung cancer cells) [nM] | GI50 [7] [nM] | GI50 [8] [nM] | GI50 [9] [nM] | GI50 [10] [nM] | GI50 [11] [nM] | GI50 [12] [nM] | GI50 [13] [nM] | GI50 [14] [nM] | GI50 [15] [nM] | GI50 (ACHN kidney cancer cells) [nM] | also measured |
| --- | --- | --- | --- | --- | --- | --- | --- | --- | --- | --- | --- | --- | --- | --- | --- | --- | --- | --- | --- |
| C=C1/C=C/CN[C@@H](C)C(=O)NCC2c3c(c(c(C)c4c3OCO4)OC1)C[C@H]1[C@H]3c4c(cc(C)c(OC)c4O)C[C@@H]([C@H](C#N)N21)N3C [Compound 33] | 140 | 31 | 270 | 25 | 52 | 32 | 260 | 360 | 310 | 87 | 93 | 18 | 46 | 370 | 260 | 110 | 190 | 260 | – |
| C#CCN1C/C=C/C(=C)COc2c(C)c3c(c4c2C[C@H]2[C@H]5c6c(cc(C)c(OC)c6O)C[C@@H]([C@H](C#N)N2C4CNC(=O)[C@@H]1C)N5C)OCO3 [Compound 35] | – | – | – | – | – | – | – | – | – | – | – | 1.3 | – | – | – | – | 3.3 | – | GI50 ([1]; Homo sapiens, HCC 2998): 3.6 nM; GI50 (DMS114 lung cancer cells; Homo sapiens, DMS-114): 1.2 nM; GI50 ([2]; Homo sapiens): 3.8 nM; GI50 ([3]; Homo sapiens): 1.1 nM; GI50 ([4]; Homo sapiens): 2.7 nM; GI50 ([5]; HBC4): 2.2 nM; GI50 ([6]; Homo sapiens, MKN-74): 4.5 nM; GI50 (A549 lung cancer cells; Homo sapiens): 7.2 nM; GI50 ([7]; Homo sapiens): 3.3 nM; GI50 ([8]; Homo sapiens): 2.7 nM; GI50 ([9]; Homo sapiens): 3.5 nM; GI50 ([11]; Homo sapiens): 2.2 nM; GI50 ([12]; Homo sapiens): 3.8 nM; GI50 ([13]; Homo sapiens): 3.4 nM; GI50 ([14]; Homo sapiens): 3.3 nM; GI50 (ACHN kidney cancer cells; Homo sapiens): 3.1 nM |
| COc1c(C)cc2c(c1O)C1C3Cc4c5c(C)c6c(c4C(CNC(=O)C(C)NCC=CCO5)N3C(C#N)C(C2)N1C)OCO6 (stereo not drawn) [Compound 42] | 18 | < 10 | 38 | < 10 | < 10 | < 10 | 35 | 110 | 47 | 21 | 31 | < 10 | 17 | 58 | 22 | 27 | 40 | 42 | – |
